Measurements published in patent US9695155B2, “Herbicidal substituted pyrimidinyloxy benzene compounds” (E. I. DU PONT DE NEMOURS AND COMPANY, priority 2013, dated 2017).

Tests used:
[1] = tested on: galium; test: Test C postemergence; type: in vivo, Galium aparine; settings: for Plant response rating, Galium: Postemergence
Procedure, shortened: (§1)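 Greenhouse herbicide screen. Pre: seeded loam/sand, sprayed at planting. Post: 1–4 leaf plants (2–18 cm) in peat-based mix. Formulation: solvent mixture + surfactant, non-phytotoxic. Readout: visual % control vs untreated, 13–15 d; dash = not tested.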

[2] = tested on: morningglory; test: Test C postemergence; type: in vivo, Ipomoea coccinea; settings: for Plant response rating (0 to 100), Morningglory: postemergence; for Plant response rating, Morningglory: Postemergence, scale 0 to 100 (0 no effect, 100 complete control)
Procedure, shortened: as §1

[3] = tested on: pigweed; test: Test A preemergence; type: in vivo, Amaranthus retroflexus; settings: for Plant response rating, Pigweed: 125 g ai/ha, 0 to 100 scale where 0 is no effect and 100 is complete control; for Pigweed plant response rating: 0 to 100 scale, 0 no effect, 100 complete control, approx. 10 days
Procedure, shortened: (§2)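 Compounds in non-phytotoxic solvent with surfactant applied as soil spray preemergence, or postemergence to plants 2-10 cm at one- to two-leaf stage, in loam/sand. After approximately 10 days in greenhouse, injury rated visually versus untreated controls, 0 (no effect) to 100 (complete control).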

[4] = tested on: kochia; test: Test C postemergence; type: in vivo, Kochia scoparia; settings: for Plant response rating, Kochia: Postemergence
Procedure, shortened: as §1

[5] = tested on: wheat; test: Test A preemergence; type: in vivo, Triticum aestivum; settings: for Plant response rating, Wheat: 125 g ai/ha, 0 to 100 scale where 0 is no effect and 100 is complete control; for Wheat plant response rating: 0 to 100 scale, 0 no effect, 100 complete control, approx. 10 days
Procedure, shortened: as §2

[6] = tested on: velvetleaf; test: Test A postemergence; type: in vivo, Abutilon theophrasti
Procedure, shortened: as §2

[7] = tested on: large (Lg) crabgrass; test: Test A postemergence; type: in vivo, Digitaria sanguinalis
Procedure, shortened: as §2

[8] = tested on: lambsquarters; test: Test C postemergence; type: in vivo, Chenopodium album; settings: for Plant response rating (0 to 100), Lambsquarters: postemergence; for Plant response rating, Lambsquarters: Postemergence, scale 0 to 100 (0 no effect, 100 complete control)
Procedure, shortened: as §1

[9] = tested on: corn; test: Test A postemergence; type: in vivo, Zea mays
Procedure, shortened: as §2

[10] = tested on: giant foxtail; test: Test A postemergence; type: in vivo, Setaria faberii
Procedure, shortened: as §2

[11] = 31 g ai/ha, scale 0 to 100 (0 no effect, 100 complete control), 13 to 15 days
[12] = 62 g ai/ha, scale 0 to 100 (0 no effect, 100 complete control)
[13] = 125 g ai/ha, 0 to 100 scale where 0 is no effect and 100 is complete control
[14] = 500 g ai/ha, 0 to 100 scale, 0 no effect, 100 complete control
[15] = 16 g ai/ha, postemergence, visual rating, scale 0 to 100 (0 no effect, 100 complete control), 13 to 15 days
[16] = 1000 g ai/ha, 0 to 100 scale, 0 no effect, 100 complete control
[17] = 500 g ai/ha, 0 to 100 scale where 0 is no effect and 100 is complete control
[18] = 8 g ai/ha, postemergence, 0 is no effect, 100 is complete control
[19] = 16 g ai/ha, postemergence, 0 is no effect, 100 is complete control
[20] = 8 g ai/ha, 0 is no effect, 100 is complete control
[21] = 16 g ai/ha, 0 is no effect, 100 is complete control

## N#Cc1cccc(Oc2ncc(F)cn2)c1-n1cc(Br)cn1 [Compound 62]
[1]; 125 g ai/ha, postemergence
  Plant response rating (0 to 100), Galium: 80
[1]; 250 g ai/ha, postemergence
  Plant response rating (0 to 100), Galium: 95
[1]; [11]
  Plant response rating, Galium: 65
[1]; [12]
  Plant response rating, Galium: 65
[2]; 125 g ai/ha
  Plant response rating (0 to 100), Morningglory: 85
[2]; 250 g ai/ha
  Plant response rating (0 to 100), Morningglory: 90
[2]; 31 g ai/ha, 13 to 15 days
  Plant response rating, Morningglory: 65
[2]; 62 g ai/ha
  Plant response rating, Morningglory: 70
[3]
  Plant response rating, Pigweed: 100
[3]; 500 g ai/ha
  Pigweed plant response rating: 100
[4]; 125 g ai/ha, postemergence
  Plant response rating (0 to 100), Kochia: 90
[4]; 250 g ai/ha, postemergence
  Plant response rating (0 to 100), Kochia: 95
[4]; [11]
  Plant response rating, Kochia: 80
[4]; [12]
  Plant response rating, Kochia: 90
[5]
  Plant response rating, Wheat: 0
[5]; 500 g ai/ha
  Wheat plant response rating: 80
[6]; [13]
  Plant response rating, Velvetleaf: 100
[6]; [14]
  Plant response rating, Velvetleaf: 100
[7]; [13]
  Plant response rating, Crabgrass, Large: 90
[7]; [14]
  Plant response rating, Crabgrass, Large: 100
[8]; 125 g ai/ha
  Plant response rating (0 to 100), Lambsquarters: 85
[8]; 250 g ai/ha
  Plant response rating (0 to 100), Lambsquarters: 90
[8]; 31 g ai/ha, 13 to 15 days
  Plant response rating, Lambsquarters: 60
[8]; 62 g ai/ha
  Plant response rating, Lambsquarters: 60
[9]; [13]
  Plant response rating, Corn: 70
[9]; [14]
  Plant response rating, Corn: 90
[10]; [13]
  Plant response rating, Foxtail, Giant: 90
[10]; [14]
  Plant response rating, Foxtail, Giant: 100

## Clc1cnc(Oc2cccc(Br)c2-n2cc(Br)cn2)nc1 [Compound 65]
[1]; [15]
  Galium plant response rating: 100
[1]; 125 g ai/ha, postemergence
  Plant response rating (0 to 100), Galium: 98
[1]; [11]
  Plant response rating, Galium: 50
[1]; [12]
  Plant response rating, Galium: 85
[2]; 125 g ai/ha
  Plant response rating (0 to 100), Morningglory: 95
[2]; 31 g ai/ha, 13 to 15 days
  Plant response rating, Morningglory: 30
[2]; 62 g ai/ha
  Plant response rating, Morningglory: 65
[3]; 1000 g ai/ha
  Pigweed plant response rating: 100
[4]; [15]
  Kochia plant response rating: 90
[4]; 125 g ai/ha, postemergence
  Plant response rating (0 to 100), Kochia: 98
[4]; [11]
  Plant response rating, Kochia: 90
[4]; [12]
  Plant response rating, Kochia: 98
[5]; 1000 g ai/ha
  Wheat plant response rating: 30
[6]; [16]
  Plant response rating, Velvetleaf: 100
[7]; [16]
  Plant response rating, Crabgrass, Large: 100
[8]; 125 g ai/ha
  Plant response rating (0 to 100), Lambsquarters: 90
[8]; 31 g ai/ha, 13 to 15 days
  Plant response rating, Lambsquarters: 80
[8]; 62 g ai/ha
  Plant response rating, Lambsquarters: 75
[9]; [16]
  Plant response rating, Corn: 70
[10]; [16]
  Plant response rating, Foxtail, Giant: 100

## N#Cc1cccc(Oc2ncc(Cl)cn2)c1-n1cnc(Br)c1 [Compound 74]
[1]; 125 g ai/ha, postemergence
  Plant response rating (0 to 100), Galium: 65
[1]; 250 g ai/ha, postemergence
  Plant response rating (0 to 100), Galium: 65
[1]; [11]
  Plant response rating, Galium: 40
[1]; [12]
  Plant response rating, Galium: 55
[2]; 125 g ai/ha
  Plant response rating (0 to 100), Morningglory: 75
[2]; 250 g ai/ha
  Plant response rating (0 to 100), Morningglory: 85
[2]; 31 g ai/ha, 13 to 15 days
  Plant response rating, Morningglory: 60
[2]; 62 g ai/ha
  Plant response rating, Morningglory: 75
[3]
  Plant response rating, Pigweed: 100
[3]; 500 g ai/ha
  Pigweed plant response rating: 100
[4]; 125 g ai/ha, postemergence
  Plant response rating (0 to 100), Kochia: 90
[4]; 250 g ai/ha, postemergence
  Plant response rating (0 to 100), Kochia: 90
[4]; [11]
  Plant response rating, Kochia: 80
[4]; [12]
  Plant response rating, Kochia: 90
[5]
  Plant response rating, Wheat: 0
[5]; 500 g ai/ha
  Wheat plant response rating: 40
[6]; [13]
  Plant response rating, Velvetleaf: 90
[6]; [17]
  Plant response rating, Velvetleaf: 100
[7]; [13]
  Plant response rating, Crabgrass, Large: 70
[7]; [14]
  Plant response rating, Crabgrass, Large: 90
[8]; 125 g ai/ha
  Plant response rating (0 to 100), Lambsquarters: 75
[8]; 250 g ai/ha
  Plant response rating (0 to 100), Lambsquarters: 85
[8]; 31 g ai/ha, 13 to 15 days
  Plant response rating, Lambsquarters: 40
[8]; 62 g ai/ha
  Plant response rating, Lambsquarters: 75
[9]; [13]
  Plant response rating, Corn: 30
[9]; [14]
  Plant response rating, Corn: 70
[10]; [13]
  Plant response rating, Foxtail, Giant: 80
[10]; [17]
  Plant response rating, Foxtail, Giant: 90

## CC(=NO)c1cn(-c2c(Br)cccc2Oc2ncc(Cl)cn2)nn1 [Compound 115]
[1]; [18]
  Plant response rating (0 to 100), Galium: 5
[1]; [19]
  Plant response rating (0 to 100), Galium: 40
[2]; [20]
  Plant response rating (0 to 100), Morningglory: 0
[2]; [21]
  Plant response rating (0 to 100), Morningglory: 40
[3]; 1000 g ai/ha
  Pigweed plant response rating: 100
[4]; [18]
  Plant response rating (0 to 100), Kochia: 0
[4]; [19]
  Plant response rating (0 to 100), Kochia: 0
[5]; 1000 g ai/ha
  Wheat plant response rating: 40
[6]; [16]
  Plant response rating, Velvetleaf: 100
[7]; [16]
  Plant response rating, Crabgrass, Large: 90
[8]; [20]
  Plant response rating (0 to 100), Lambsquarters: 10
[8]; [21]
  Plant response rating (0 to 100), Lambsquarters: 10
[9]; [16]
  Plant response rating, Corn: 90
[10]; [16]
  Plant response rating, Foxtail, Giant: 90
